Several values for one entry are separate records, joined by “and”; a condition that tells them apart may be missing. Identical values can stand only once.
Legend:
CIDP mice = experiment: Rotarod test, CIDP mouse model; format: in vivo; conditions: for Rotarod latency (Mean ± SEM): CIDP mice; for Rotarod latency, group Mean: group mean of 4 animals; for Rotarod latency, Mean/animal: per animal; for Rotarod latency, Mean/animal / Rotarod latency, set 1 / Rotarod latency, set 2 / Rotarod latency, set 3: listed as hAAT; for Rotarod latency, set 1 / Rotarod latency, set 2 / Rotarod latency, set 3: raw data per animal
Protocol: (§1) C57BL/6 mice were received at 8 weeks of age and housed under controlled conditions for the duration of the study. Three groups of 4 animals each were assigned to the following subcutaneous treatments twice daily at 7:00 AM and 7:00 PM for 2 weeks, from 20 to 35 days after the start of disease induction: • Wild type (WT) mice receiving the vehicle, 0.9% NaCl (positive control) • CIDP mice receiving the vehicle, 0.9% NaCl (negative control) • CIDP mice receiving human AAT (AAT), 50 mg/kg per injection
Disease induction consisted in subcutaneous injection of mouse sciatic nerve homogenate in phosphate buffer saline (PBS)+Freund's adjuvant mixture at 10 mL/kg. For each treatment, 3 different body sites injections were performed. Control mice also received three subcutaneous injections of PBS+Freund's adjuvant at the same 3 different body sites.
On the first (Day 20) and last (Day 35) day of treatment, the neuromuscular and performance of animals was tested with a rotarod test, grip test and a sensory test using the Von Frey filament test, as well as sciatic nerve electrophysiology test. After the last treatment at Day 35, these tests were repeated, animals were sacrificed and the left sciatic nerve was sampled for histological evaluation of the number and size of […].

[1] = biological target: T1, Recombinant Human TACE/ADAM17 (Homo sapiens, UniProt P78536); experiment: Cell free TACE/ADAM17 activity; format: biochemical; conditions: cell-free assay; AAT Sigma Aldrich, batch A6150; read-out: IC50 of TACE activity inhibition
T1 construct: purchased R&D Systems 930-ADB-010
T1 sequence (P78536 215-671 limits assumed): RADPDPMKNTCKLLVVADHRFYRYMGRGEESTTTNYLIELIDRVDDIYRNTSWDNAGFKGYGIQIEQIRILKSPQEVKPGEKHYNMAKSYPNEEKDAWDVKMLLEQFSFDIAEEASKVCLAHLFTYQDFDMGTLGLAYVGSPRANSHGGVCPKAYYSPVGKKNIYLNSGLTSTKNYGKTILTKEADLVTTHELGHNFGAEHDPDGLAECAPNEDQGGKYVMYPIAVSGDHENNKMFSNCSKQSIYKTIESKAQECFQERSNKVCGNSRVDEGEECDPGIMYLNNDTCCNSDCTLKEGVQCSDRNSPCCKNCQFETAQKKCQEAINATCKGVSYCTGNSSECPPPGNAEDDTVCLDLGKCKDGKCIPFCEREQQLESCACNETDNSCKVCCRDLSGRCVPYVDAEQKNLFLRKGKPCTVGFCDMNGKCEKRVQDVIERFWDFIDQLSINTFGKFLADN
Protocol: TACE activity and its inhibition by human AAT (AAT) was performed with Recombinant Human TACE/ADAM17 kit (930-ADB and ES003, R&D Systems) in black 96-well immuno plates (437111, ThermoFisher Scientific). The enzymatic activity of TACE/ADAM17 was measured by mixing 0.005 μg of rhTACE with 10 μM of Mca-PLAQAV-Dpa-RSSSR-NH2 fluorogenic peptide substrate III in assay buffer (25 mM Tris, 2.5 μM ZnCl2, 0.005% Brij-35 (w/v), pH 9.0) to a final volume of 100 μl. AAT (Sigma Aldrich, batch A6150) was resuspended in water (vehicle), control TACE/ADAM17 activity was assessed in presence of the vehicle (amount used for AAT 100 μM). AAT was added at different concentration (0, 6.25, 12.5, 25, 50 and 100 μM) to assess its dose-dependent inhibition of TACE/ADAM17. All conditions were performed in triplicates. Activity was measured as relative fluorescent unit (RFU) in a kinetic mode (9 time points over 5 min) with a SpectraMax iD3 Microplate Reader (low PMT gain, is exposition, top read at 1 mm, wavelength: excitation 320 nm, emission 405 nm). Bar graph as percentage of control activity was obtained by averaging the values obtained over the 5 min for each of the condition.
TACE activity is assessed according to the manufacturer's instruction (Recombinant Human TACE/ADAM17 kit, 930-ADB, R&D Systems) in kinetic mode, without or with different AAT concentration. All conditions were done in triplicates and are shown as mean±SD (FIGS. 5A, 5B and 5C).
ADAM-17 activity and its inhibition by human peptide 8 was measured with Recombinant Human ADAM-17 kit (Recombinant Human TACE/ADAM17 Protein, CF: 930-ADB-010 and Mca-PLAQAV-Dpa-RSSSR-NH2 Fluorogenic Peptide Substrate:ES003; R&D Systems) in black 96-well immunoplates (437111; Thermo Fisher Scientific). The enzymatic activity of ADAM-17 was measured by mixing 0.005 μg of rhADAM-17 with 10 μM of Mca-PLAQAV-Dpa-RSSSR-NH2 fluorogenic peptide substrate III in assay buffer (25 mM Tris, 2.5 μM ZnCl2, 0.005% Brij-35 (w/v), pH 9.0) to a final volume of 100 μL. Peptide 8 (Syngene) was dissolved in DMSO and diluted to the desired concentration in assay buffer. Control ADAM-17 activity was assessed in the presence of the assay buffer. […] All conditions were performed in triplicate. Activity was measured as relative fluorescent units (RFU) in endpoint mode (5 min) with a SpectraMax iD3 Microplate Reader (automatic PMT gain, wavelengths: excitation 320 nm, emission 405 nm).

plasma TNFα = experiment: Plasma TNFα quantification, CIDP mouse model; format: in vivo; conditions: for Plasma TNFα concentration (Mean ± SD): CIDP mice; for TNFα conc: per animal, listed as hAAT
Protocol: as §1
On the day preceding disease induction (Day 1), on the first (Day 20) and on the last (Day 35) treatment day, animals were subjected to blood samplings for the determination of neurofilament light chain (NfL), tumour necrosing factor alpha (TNFα) and TMPRSS5 levels, as described in FIG. 20. In addition, plasma levels of AAT were evaluated on the last treatment day.

[2] = tested on: C3-PMP22 transgenic mice (CMT1A); experiment: Sciatic nerve histology, CMT1A mouse study (50 mg/kg twice daily); format: in vivo; conditions: 8 weeks old
Protocol: Animals were split in 3 groups (wild-type control (subcutaneous 0.9% NaCl), CMT1A-vehicle (subcutaneous 0.9% NaCl), CMT1A-human alpha-1 antitrypsin (subcutaneous, twice daily, 50 mg/kg per injection)) of 3 mice each (3 weeks old males of 18±2.5 g at the beginning of study) and all went through the following protocol after 7 days of acclimation on site.
On the first and last day of treatment, the neuromuscular performance of animals was tested with a rotarod test, grip test and sciatic nerve electrophysiology test. After the last treatment at 8 weeks, these tests were repeated, and animals were sacrificed and the left sciatic nerve was sampled for histological evaluation of the number and size of […].

[3] = Day 20, before compound treatment
[4] = CMT1A + AAT, 50 mg/kg twice daily sc
[5] = CMT1A mice, AAT 50 mg/kg sc twice daily

## alpha1-antitrypsin (AAT) protein
CIDP mice; CIDP + AAT 50 mg/kg sc twice daily, Day 35
  rotarod latency compared to the vehicle treated group: increase
CIDP mice; Day 20 (baseline, first treatment day)
  Rotarod latency (Mean ± SEM): 25.96 ± 6.16 s
CIDP mice; Day 35, AAT 50 mg/kg sc twice daily
  Rotarod latency (Mean ± SEM): 34.96 ± 9.47 s
CIDP mice; Baseline (Day 20)
  Rotarod latency, group Mean: 25.96 s
  Rotarod latency, Mean/animal: 17.68 s and 29.19 s and 31.82 s and 25.13 s
  Rotarod latency, set 1: 19.1 s and 28.0 s and 28.7 s and 24.1 s
  Rotarod latency, set 2: 17.7 s and 26.7 s and 33.0 s and 24.0 s
  Rotarod latency, set 3: 16.2 s and 32.9 s and 33.8 s and 27.3 s
CIDP mice; Day 35
  Rotarod latency, group Mean: 34.96 s
  Rotarod latency, Mean/animal: 38.90 s and 36.28 s and 43.23 s and 21.41 s
  Rotarod latency, set 1: 32.02 s and 44.79 s and 52.44 s and 37.74 s
  Rotarod latency, set 2: 36.34 s and 31.48 s and 34.61 s and 19.21 s
  Rotarod latency, set 3: 48.35 s and 32.56 s and 42.63 s and 7.29 s
[1]
  IC50: 15.3 µM
Plasma TNFα; CIDP + AAT, day 35
  plasma TNFα concentration compared to the CIDP+vehicle treated group: significant decrease
Plasma TNFα; Day 1
  Plasma TNFα concentration (Mean ± SD): 138.46 ± 18.58 pg/mL
  TNFα conc, group MEAN: 138.46 pg/mL
Plasma TNFα; Day 20
  Plasma TNFα concentration (Mean ± SD): 1397.62 ± 330.96 pg/mL
  TNFα conc, group MEAN: 1397.62 pg/mL
Plasma TNFα; Day 35
  Plasma TNFα concentration (Mean ± SD): 1046.73 ± 144.47 pg/mL
  Plasma TNFα, Mean Diff., CIDP + vehicle vs. CIDP + hAAT (Bonferroni's multiple comparisons test): 385.1
  TNFα conc, group MEAN: 1046.73 pg/mL
  TNFα conc: 910.997 pg/mL and 1161.216 pg/mL and 933.130 pg/mL and 1181.571 pg/mL
Plasma TNFα; [3]
  Plasma TNFα, Mean Diff., CIDP + vehicle vs. CIDP + hAAT (Bonferroni's multiple comparisons test): −187.9
  Plasma TNFα, Significant?, CIDP + vehicle vs. CIDP + hAAT (Bonferroni's multiple comparisons test): No
Plasma TNFα; Day 1 (before model induction)
  TNFα conc: 125.451 pg/mL and 165.501 pg/mL and 135.780 pg/mL and 127.127 pg/mL
Plasma TNFα; Day 20 (before compound treatment)
  TNFα conc: 1705.849 pg/mL and 1029.281 pg/mL and 1208.445 pg/mL and 1646.907 pg/mL
[2]; [4]
  axonal diameter compared to the vehicle treated group: significant increase
  g-ratio compared to the vehicle treated group: decrease
  total number of axons per surface compared to the vehicle group: Slight increase
[2]; [5]
  Sciatic nerve histology, Axonal diameter (Mean ± SEM): 2.53 ± 0.15 ^††† μm
  Sciatic nerve histology, Axons/100 μm^2 (Mean ± SEM): 39.33 ± 4.81
  Sciatic nerve histology, g-ratio (Mean ± SEM): 0.63 ± 0.009 ^†††

From patent publication US20260028390A1, “ALPHA1-ANTITRYPSIN FOR USE IN THE TREATMENT OF DISEASES OR DISORDERS OF THE NERVOUS SYSTEM SUCH AS CHRONIC INFLAMMATORY DEMYELINATING POLYNEUROPATHY” (Ageronix SA, priority 2022, published 2026)
